Patent publication US20050054770A1, “Helicomimetics and stabilized lxxll peptidomimetics” (priority 2001, published 2005)
Where two headings read alike, the source gives them in different places. Positions of bridges follow the written chain, without caps; N, C: chain ends. Non-standard residues stand in square brackets, D forms with d. Residues, ends and D or L forms follow the SMILES beside them. dPen = CC(C)(S)[C@@H](N)C(=O)O; Pen = CC(C)(S)[C@H](N)C(=O)O; d(hCys) = N[C@H](CCS)C(=O)O; hCys = N[C@@H](CCS)C(=O)O; Aib = CC(C)(N)C(=O)O

Key:
ER alpha = biological target: T1, ER alpha (Homo sapiens, UniProt P03372); test: competition binding assay against a model linear peptide sequence (estrogen receptor-coactivator interaction), ER alpha
T1 sequence (P03372 1-595): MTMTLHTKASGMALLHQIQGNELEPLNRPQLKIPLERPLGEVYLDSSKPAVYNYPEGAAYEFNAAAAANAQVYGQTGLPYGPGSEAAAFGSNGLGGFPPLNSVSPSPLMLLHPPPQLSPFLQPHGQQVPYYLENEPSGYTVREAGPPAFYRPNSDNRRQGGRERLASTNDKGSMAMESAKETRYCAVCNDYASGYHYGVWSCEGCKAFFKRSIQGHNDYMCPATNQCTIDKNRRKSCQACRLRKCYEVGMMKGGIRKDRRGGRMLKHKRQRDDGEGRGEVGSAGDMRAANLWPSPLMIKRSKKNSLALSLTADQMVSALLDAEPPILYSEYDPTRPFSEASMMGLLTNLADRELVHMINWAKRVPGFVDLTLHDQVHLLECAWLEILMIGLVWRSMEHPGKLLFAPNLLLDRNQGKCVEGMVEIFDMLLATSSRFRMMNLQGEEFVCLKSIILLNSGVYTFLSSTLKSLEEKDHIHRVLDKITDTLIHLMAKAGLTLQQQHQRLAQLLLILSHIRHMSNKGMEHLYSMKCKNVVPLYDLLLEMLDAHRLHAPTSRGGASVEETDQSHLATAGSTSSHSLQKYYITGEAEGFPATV
Protocol: (§1) The synthetic helicormimetic peptides designed as antagonists of the estrogen receptor-coactivator interactions were tested in a competition binding assay (Lilly Research Labs) against a model linear peptide sequence. Activities are reported in the Table below in Ki values, with two of the best analogs labeled as PERM-1 and PERM-2, or Peptidomimetic Estrogen Receptor Modulators.

ER beta = ER beta (Homo sapiens, UniProt Q92731); test: competition binding assay against a model linear peptide sequence (estrogen receptor-coactivator interaction), ER beta
Protocol: as §1

[1] = competition binding assay (Lilly Research Labs), read-out: Ki ER α
[2] = competition binding assay (Lilly Research Labs), read-out: Ki ER β

ER beta, sequence (Q92731 whole entry): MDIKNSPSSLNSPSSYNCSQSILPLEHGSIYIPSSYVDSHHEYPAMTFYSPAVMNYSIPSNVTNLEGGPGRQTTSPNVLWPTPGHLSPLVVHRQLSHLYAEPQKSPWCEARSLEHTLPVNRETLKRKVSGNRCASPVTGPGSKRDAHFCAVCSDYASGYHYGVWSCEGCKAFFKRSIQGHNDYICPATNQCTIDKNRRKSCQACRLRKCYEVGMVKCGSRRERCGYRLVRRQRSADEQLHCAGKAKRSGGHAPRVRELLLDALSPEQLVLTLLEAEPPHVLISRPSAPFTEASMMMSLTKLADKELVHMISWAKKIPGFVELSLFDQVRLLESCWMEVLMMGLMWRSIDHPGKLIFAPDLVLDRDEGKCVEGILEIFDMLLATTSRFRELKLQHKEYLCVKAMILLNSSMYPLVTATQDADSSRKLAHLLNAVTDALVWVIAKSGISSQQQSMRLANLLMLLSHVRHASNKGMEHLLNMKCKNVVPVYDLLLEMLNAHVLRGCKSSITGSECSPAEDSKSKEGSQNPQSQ

Row | SMILES | Ki (ER alpha; [1]) | Ki (ER beta; [2]) | Ki (ER alpha; read-out: Ki value against ER alpha) | Ki (ER beta; read-out: Ki value against ER beta) | selectivity ER alpha versus ER beta (ER alpha; from Ki values against ER alpha and ER beta)
1 | CC(C)C[C@H](NC(=O)[C@H](CC(C)C)NC(=O)[C@H](CCC(N)=O)NC(=O)[C@H](CCC(=O)O)NC(=O)[C@H](CC(C)C)NC(=O)CC1O[C@H](CO)[C@@H](O)[C@H](O)[C@@H]1O)C(=O)O (stereo partly drawn) [AML-I-31, Mannosylacetvl-Leu-Glu-Gln-Leu-Leu-OH] |  | 339000 nM |  |  | 
2 | CC[C@H](C)[C@@H]1NC(=O)[C@@H](NC(=O)[C@@H](N)CCCCN)CSC[C@@H](C(=O)N[C@@H](CCCNC(=N)N)C(=O)N[C@@H](CC(C)C)C(=O)N[C@@H](CC(C)C)C(=O)N[C@@H](CCC(N)=O)C(N)=O)NC(=O)[C@H](CC(C)C)NC1=O [AKG-I-39, H-Lys-cyclo (Ala-Ile-Leu-Ala)- Arg-Leu-Leu-Gln-NH2, Lanthionine] | 1180 nM | 15400 nM |  |  | 
3 | CC[C@H](C)[C@@H]1NC(=O)[C@@H](NC(=O)[C@@H](N)CCCCN)CSSC[C@H](C(=O)N[C@@H](CCCNC(=N)N)C(=O)N[C@@H](CC(C)C)C(=O)N[C@@H](CC(C)C)C(=O)N[C@@H](CCC(N)=O)C(N)=O)NC(=O)[C@H](CC(C)C)NC1=O [AKG-I-60, H-Lys-cyclo(Cys-Ile-Leu-D-Cys)-Arg-Leu-Leu-Gln-NH2] (H-KCIL[dC]RLLQ-NH2; disulfide 2-5) | 2400 nM | 7200 nM |  |  | 
4 | CC(C)C[C@H](NC(=O)[C@H](CC(C)C)NC(=O)[C@H](CCCNC(=N)N)NC(=O)[C@H]1CSSC[C@H](NC(=O)[C@@H](N)CCCCN)C(=O)N[C@@H](CC(C)C)C(=O)N1)C(=O)N[C@@H](CCC(N)=O)C(N)=O [AKG-I-63, H-Lys-cyclo(Cys-Leu-D-Cys)-Arg-Leu-Leu-Gln-NH2] (H-KCL[dC]RLLQ-NH2; disulfide 2-4) | 2200 nM | 7900 nM |  |  | 
5 | CC[C@H](C)[C@H](NC(=O)[C@H](CCCCN)NC(=O)[C@H](Cc1c[nH]cn1)NC(=O)[C@@H](N)CCCCN)C(=O)N[C@@H](CC(C)C)C(=O)N[C@@H](Cc1c[nH]cn1)C(=O)N[C@@H](CCCNC(=N)N)C(=O)N[C@@H](CC(C)C)C(=O)N[C@@H](CC(C)C)C(=O)N[C@@H](CCC(N)=O)C(=O)N[C@@H](CC(=O)O)C(=O)N[C@@H](CO)C(=O)N[C@@H](CO)C(=O)O [AML-I-89/2, H-Lys-His-Lys-Ile-Leu-His-Arg-Leu-Leu-Gln-Asp-Ser-Ser-OH] (H-KHKILHRLLQDSS-OH) | 380 nM | 6900 nM |  |  | 
6 | CC[C@H](C)[C@@H]1NC(=O)[C@H](NC(=O)[C@H](CCCCN)NC(C)=O)CSSC[C@@H](C(=O)N[C@@H](CCCNC(=N)N)C(=O)N[C@@H](CC(C)C)C(=O)N[C@@H](CC(C)C)C(=O)N[C@@H](CCC(N)=O)C(N)=O)NC(=O)[C@H](CC(C)C)NC1=O [AML-I-71/2, Ac-Lys-cyclo(D-Cys-Ile-Leu-Cys)-Arg-Leu-Leu-Gln-NH2] (Ac-K[dC]ILCRLLQ-NH2; disulfide 2-5) | 120 nM | 7700 nM |  |  | 
7 | CC(C)C[C@H](NC(=O)[C@H](CC(C)C)NC(=O)[C@H](CCCNC(=N)N)NC(=O)[C@H]1CSSC[C@@H](NC(=O)[C@@H](N)CCCCN)C(=O)N[C@@H](CC(C)C)C(=O)N1)C(=O)N[C@@H](CCC(N)=O)C(N)=O [AKG-I-64, H-Lys-cyclo(D-Cys-Leu-D-Cys)-Arg-Leu-Leu-Gln-NH2] (H-K[dC]L[dC]RLLQ-NH2; disulfide 2-4) | 1800 nM | 5200 nM |  |  | 
8 | CC[C@H](C)[C@@H]1NC(=O)[C@H](NC(=O)[C@@H](N)CCCNC(=N)N)C(C)(C)SSC(C)(C)[C@@H](C(=O)N[C@@H](CCCNC(=N)N)C(=O)N[C@@H](CC(C)C)C(=O)N[C@@H](CC(C)C)C(=O)N[C@@H](CCC(N)=O)C(N)=O)NC(=O)[C@H](CC(C)C)NC1=O [AKG-II-11, H-Arg-cyclo(D-Pen-Ile-Leu-Pen)-Arg-Leu-Leu-Gln-NH2] (H-R[dPen]IL[Pen]RLLQ-NH2; disulfide 2-5) | 78 nM | 3970 nM |  |  | 
9 | CC[C@H](C)[C@@H]1NC(=O)[C@H](CC(C)C)NC(=O)[C@@H](NC(=O)[C@@H](N)CCCCN)CSSC[C@H](C(=O)N[C@@H](CCCNC(=N)N)C(=O)N[C@@H](CC(C)C)C(=O)N[C@@H](CC(C)C)C(=O)N[C@@H](CCC(N)=O)C(N)=O)NC1=O [AKG-I-59, H-Lys-cyclo(Cys-Leu-Ile-D-Cys)-Arg-Leu-Leu-Gln-NH2] (H-KCLI[dC]RLLQ-NH2; disulfide 2-5) | 2100 nM | 17000 nM |  |  | 

Now those with a lower Ki (ER beta; [2]), led by results:

Row | Ki (ER alpha; [1]) | Ki (ER beta; [2]) | Ki (ER alpha; read-out: Ki value against ER alpha) | Ki (ER beta; read-out: Ki value against ER beta) | SMILES | selectivity ER alpha versus ER beta (ER alpha; from Ki values against ER alpha and ER beta)
10 | 130 nM | 1400 nM |  |  | CC[C@H](C)[C@@H]1NC(=O)[C@H](NC(=O)[C@H](CCCCN)NC(=O)C(C)(C)N)CSSC[C@@H](C(=O)N[C@@H](CCCNC(=N)N)C(=O)N[C@@H](CC(C)C)C(=O)N[C@@H](CC(C)C)C(=O)N[C@@H](CCC(N)=O)C(N)=O)NC(=O)[C@H](CC(C)C)NC1=O [AML-I-83/4, Aib-Lys-cyclo(D-Cys-Ile-Leu-Cys)-Arg-Leu-Leu-Gln-NH2] (H-[Aib]K[dC]ILCRLLQ-NH2; disulfide 3-6; N-terminus assumed) | 
11 | 170 nM | 2800 nM |  |  | CC[C@H](C)[C@H](NC(=O)[C@H](CCCCN)NC(=O)[C@@H](N)CCCCN)C(=O)N[C@@H](CC(C)C)C(=O)N[C@@H](Cc1c[nH]cn1)C(=O)N[C@@H](CCCNC(=N)N)C(=O)N[C@@H](CC(C)C)C(=O)N[C@@H](CC(C)C)C(=O)N[C@@H](CCC(N)=O)C(N)=O [AML-I-61/2, H-Lys-Lys-Ile-Leu-His-Arg-Leu-Leu-Gln-NH2] (H-KKILHRLLQ-NH2) | 
12 | 88 nM | 1910 nM |  |  | CC[C@H](C)[C@@H]1NC(=O)[C@H](NC(=O)[C@@H](N)CCCNC(=N)N)CSSC(C)(C)[C@@H](C(=O)N[C@@H](CCCNC(=N)N)C(=O)N[C@@H](CC(C)C)C(=O)N[C@@H](CC(C)C)C(=O)N[C@@H](CCC(N)=O)C(N)=O)NC(=O)[C@H](CC(C)C)NC1=O [AKG-II-10, H-Arg-cyclo (D-Cys-Ile-Leu-Pen)-Arg-Leu-Leu-Gln-NH2] (H-R[dC]IL[Pen]RLLQ-NH2; disulfide 2-5) | 
13 | 398 nM | 2000 nM |  |  | CC[C@H](C)[C@@H]1NC(=O)[C@H](NC(=O)[C@H](CC(C)C)NC(=O)[C@H](CC(C)C)NC(=O)[C@@H](N)CCCCN)CSSC[C@@H](C(=O)N[C@@H](CCCNC(=N)N)C(=O)N[C@@H](CC(C)C)C(=O)N[C@@H](CC(C)C)C(=O)N[C@@H](CCC(N)=O)C(N)=O)NC(=O)[C@H](CC(C)C)NC1=O [AKG-I-46, H-Lys-Leu-Leu-cyclo(D-Cys-Ile-Leu-Cys)-Arg-Leu-Leu-Gln-NH2] (H-KLL[dC]ILCRLLQ-NH2; disulfide 4-7) | 
14 | 35 nM | 591 nM |  |  | CC[C@H](C)[C@@H]1NC(=O)[C@H](NC(=O)[C@@H](N)CCCNC(=N)N)CCSSC[C@@H](C(=O)N[C@@H](CCCNC(=N)N)C(=O)N[C@@H](CC(C)C)C(=O)N[C@@H](CC(C)C)C(=O)N[C@@H](CCC(N)=O)C(N)=O)NC(=O)[C@H](CC(C)C)NC1=O [AKG-II-4, H-Arg-cyclo (DHomoCys-lIe-Leu-Cys)- Arg-Leu-Leu-Gln-NH2] (H-R[d(hCys)]ILCRLLQ-NH2; disulfide 2-5) | 
15 | 13 nM | 214 nM |  |  | CC[C@H](C)[C@@H]1NC(=O)[C@H](NC(=O)[C@@H](N)CCCNC(=N)N)CSSCC[C@@H](C(=O)N[C@@H](CCCNC(=N)N)C(=O)N[C@@H](CC(C)C)C(=O)N[C@@H](CC(C)C)C(=O)N[C@@H](CCC(N)=O)C(N)=O)NC(=O)[C@H](CC(C)C)NC1=O [AKG-II-3, H-Arg-cyclo (D-Cys-Ile-Leu-HomoCys)-Arg-Leu-Leu-Gln-NH2] (H-R[dC]IL[hCys]RLLQ-NH2; disulfide 2-5) | 
16 | 13 nM | 216 nM |  |  | CC[C@H](C)[C@@H]1NC(=O)[C@H](CC(C)C)NC(=O)[C@H](NC(=O)[C@@H](N)CCCNC(=N)N)CSSC[C@@H](C(=O)N[C@@H](CCCNC(=N)N)C(=O)N[C@@H](CC(C)C)C(=O)N[C@@H](CC(C)C)C(=O)N[C@@H](CCC(N)=O)C(N)=O)NC1=O [AKG-II-1, H-Arg-cyclo (D-Cys-Leu-Ile-Cys)-Arg-Leu-Leu-Gln-NH2] (H-R[dC]LICRLLQ-NH2; disulfide 2-5) | 
17 |  | 390 nM | 25 nM | ~390 nM | CC[C@H](C)[C@@H]1NC(=O)[C@H](NC(=O)[C@@H](N)CCCCN)CSSC[C@@H](C(=O)N[C@@H](CCCNC(=N)N)C(=O)N[C@@H](CC(C)C)C(=O)N[C@@H](CC(C)C)C(=O)N[C@@H](CCC(N)=O)C(N)=O)NC(=O)[C@H](CC(C)C)NC1=O [AML-I-48/4, H-Lys-cyclo (D-Cys-Ile-Leu-Cys)-Arg-Leu-Leu-Gln-NH2] (H-K[dC]ILCRLLQ-NH2; disulfide 2-5) | exhibits selectivity against the ER alpha receptor
18 | 174 nM | 1160 nM |  |  | CC[C@H](C)[C@@H]1NC(=O)[C@@H](NC(=O)[C@@H](N)CCCNC(=N)N)CSSC[C@@H](C(=O)N[C@@H](CC(C)C)C(=O)N[C@@H](CC(C)C)C(=O)N[C@@H](CCC(N)=O)C(N)=O)NC(=O)[C@H](CCCNC(=N)N)NC(=O)[C@H](CC(C)C)NC1=O [AKG-II-8, H-Arg-cyclo (Cys-Ile-Leu-Arg-Cys)-Leu-Leu-Gln-NH2] (H-RCILRCLLQ-NH2; disulfide 2-6) | 
